The term inhibition denotes the percentage by which the read-out fell short of the control. Read a low inhibition as a weak effect.

This passage reports inhibition and Activity results from ChEMBL document CHEMBL1133234, “Synthesis and biological activity of 4'-methoxy derivatives of abscisic acid” (2000).

Active and inactive are the calls of the source. The rule behind the calls is not given here.

What all share (format): functional
The subject of assay [1] is Hordeum vulgare subsp. vulgare. Nature of the assay: Compound was tested for inhibition of GA-inducible alpha-amylase induction in barley aleurone protoplasts at 0.1 uM.
The subject of assay [2] is Hordeum vulgare subsp. vulgare. As to the kind of experiment: Compound was tested for inhibition of GA-inducible alpha-amylase induction in barley aleurone protoplasts at 1 uM.
In assay [3] the test system is Hordeum vulgare subsp. vulgare. As to the kind of experiment: Compound was tested for inhibition of GA-inducible alpha-amylase induction in barley aleurone protoplasts at 100 uM.
Assay [4] relates to Hordeum vulgare subsp. vulgare. Nature of the assay: Compound was tested for inhibition of GA-inducible alpha-amylase induction in barley aleurone protoplasts at 10 uM.
Assay [5] relates to Hordeum vulgare subsp. vulgare. Nature of the assay: Compound was tested for inhibition of GA3-induced alpha-amylase induction and induction of the accumulation of dehydrin in unstressed barley seeds; Active.
For assay [6], the system named is Lepidium sativum. Nature of the assay: Compound was tested for inhibition of cress germination at 0.1 uM.
Assay [7] relates to Lepidium sativum. Nature of the assay: Compound was tested for inhibition of cress germination at 10 uM.
Assay [8] relates to Lepidium sativum. Nature of the assay: Compound was tested for inhibition of cress germination at 100 uM.
In assay [9] the test system is Lepidium sativum. Nature of the assay: Compound was tested for inhibition of cress germination at 1 uM.
Assay [10] has as its system Hordeum vulgare subsp. vulgare. As to the kind of experiment: Compound was tested for inhibition of GA3-induced alpha-amylase induction and induction of the accumulation of dehydrin in unstressed barley seeds at 10 uM; Active.

Take `CO[C@@H]1C=C(C)[C@](O)(/C=C/C(C)=C\C(=O)O)C(C)(C)C1`: the inhibition in [1] stood at 60%; in assay [2], 90%; in assay [3] it was 100%; in assay [4], 100%. Moreover, the result in assay [5] was Active. Moreover, in the assay on Lepidium sativum [6], the inhibition at 0.1 µM was about 40%. The same molecule displayed an inhibition at 10 µM in the assay on Lepidium sativum [7] of about 95%. The molecule also came in with an inhibition at 100 µM with Lepidium sativum [8] of about 100%. The inhibition at 1 µM in the assay with Lepidium sativum [9] was about 60%.

On to `CO[C@H]1C=C(C)[C@](O)(/C=C/C(C)=C\C(=O)O)C(C)(C)C1`, for which the inhibition in assay [1] is 20%; in [2], 50%; in assay [3], 100%; in assay [4], 90%. The outcome in [5] was Active. The molecule also gave an inhibition at 0.1 µM in the assay with Lepidium sativum [6] of about 20%. For the same molecule, the inhibition at 10 µM in the assay with Lepidium sativum [7] is about 95%. Besides, in the assay on Lepidium sativum [8], the inhibition at 100 µM is about 100%. Further, the inhibition at 1 µM in the assay with Lepidium sativum [9] is about 40%.

As for `CC1=CC(=O)CC(C)(C)[C@@]1(O)/C=C/C(C)=C\C(=O)O` (racemic) [(+)-ABSCISIC ACID], the inhibition was found to be 50% in assay [1], 100% in [2], 100% in [3] and 100% in assay [4]. Further, the outcome in assay [10] was Active. Further, in the assay on Lepidium sativum [6], the inhibition at 0.1 µM was about 60%. In the assay with Lepidium sativum [7], the inhibition at 10 µM was about 100%. In the assay on Lepidium sativum [8], this molecule showed an inhibition at 100 µM of about 100%. Besides, the inhibition at 1 µM in the assay with Lepidium sativum [9] is about 80%.
